Here are results for 2 compounds from patent US20220105082A1, “NEW FORMULATIONS CONTAINING LEUKOTRIENE RECEPTOR ANTAGONISTS” (JIANGYIN MUCOCARE PHARMACEUTICAL CO., LTD., priority 2019, published 2022).

The structures appear in SMILES notation.

Experiment [1] relates to SD rats. Briefly: Idiopathic pulmonary fibrosis (IPF) model, bleomycin-induced. In kind it is in vivo, rat. Conditions: pirfenidone 120 mg/kg intragastric, 28 days.
Method: 50 Adult SD rats (Zhejiang Experimental Animal Center (Animal Production License Number: SCXK (Zhejiang, Chi-00, half male and half female were kept at 21-26° C. with 40-70% relative humidity, with free access to food and water.
After 7 days of adaptive feeding, the rats were randomly divided into 5 groups: sham operation group, idiopathic pulmonary fibrosis model group, Monte gavage administrating group, Monte inhalation administrating group and pirfenidone control group.
The rats were anaesthetized and placed on an operating table in the supine position, exposing the trachea. 150 μL of Bleomycin (Bleomycin Hydrochloride for Injection, Zhejiang Hisun Pharmaceutical Co. Ltd, China) in saline solution was injected into the trachea through the gap between the tracheal cartilage at 5 mg/kg. (The sham-operation group were given an equal volume of normal saline.)
The rats were lifted vertically after administration and were rotated to allow the drug to evenly disperse. Once the rats recovered, after approximately 7 days, they were administrated different drugs according to Table 1 below. […]
Experiment [2] concerns BALB/c mice. Briefly: Mouse ear swelling model (xylene induced). The conditions noted are these: cream 5 mg/g, 500 μg/mouse on right ear, 40 minutes. It counts as in vivo. How it is done: 35 healthy male BALB/c mice of 6-8 weeks of age and average body weight of 18-25 g supplied by Changzhou Cvens Experimental Animal Co. Ltd. were housed and cared for about for 1 week prior to the experiment. The housing temperature was 25-27° C. with 74% humidity, with alternating 12 hour periods of light and darkness, and free access to food and water. The mice were randomly divided into 4 groups as described in Table 1 below, with 5 mice in each group.
The left ear of each mouse was used as autologous control. 20 μL of xylene (Shanghai Aladdin Bio-Chem Technology Co., Ltd., Shanghai, China) was applied to the right ear of each mouse, both inside and outside. The ear started to swell in about 4 minutes. Then, different amounts of each study treatments or vehicles (as described in Table 1 below) were applied to the right ears in each group. The mice were put back into their cages.
The mice were sacrificed by cervical dislocation after 40 minutes. The left and right ears were cut off. A skin pouch (Electron Microscopy Sciences, Hatfield, USA) with diameter of 8 mm was used to take a piece of ear from the same site of both ears. The weights were recorded the weights and the swelling rates were calculated as follows:
Swelling rate=(right ear weight−left ear weight)/left ear weight×100%

`Cc1ccc(=O)n(-c2ccccc2)c1` [Postitive Control, pirfenidone]: in experiment [1] (lung), the HYP turned out to be 755.49 ± 66.64 μg/g wet weight. This compound also gave an IL-10 in experiment [1] (tissue) of 43.52 ± 4.30 pg/mg protein. `COc1cc(C(=O)NS(=O)(=O)c2ccccc2C)ccc1Cc1cn(C)c2ccc(NC(=O)OC3CCCC3)cc12` [zafirlukast]: the xylene induced swelling result in experiment [2] is reported as “significantly reduce”.
